Experimental findings from US8211939B2, “Isosorbide nitrates” (Lacer, S.A., priority 2008, dated 2012) are described below.

Assay [1] deals with thrombus formation in the carotid artery (70% FeCl3 patch). The assay is described as follows: Anti-thrombotic activity, FeCl3-induced carotid artery thrombosis. The class given is in vivo, Male Wistar rats. Particulars: 90 μmol/kg p.o., % animals protected; for responders at 90 µmol/kg: po, read-out: Antithrombotic activity (% protection). The method, then: Anti-Thrombotic Activity Assessment Experimental Procedure Male Wistar rats weighing 250-300 g were used after an acclimatization period of five days, and animals were divided in groups of 8 animals each for the treatments. […] The vehicle used to dissolve the products consisted of 1% Cremophor EL 27963, 1% Tween 80 and 0.5% Methocel E-15 in distilled water. After a fasting period of 8 hours with free access to drinking water each product was given by gavage 1 hour before induction of thrombosis. Thrombus formation was induced using a patch embedded with 70% FeCl3 solution applied onto the carotid artery using the same procedure described by Feuerstein G Z et al and later modified by Kurz et al (Feuerstein G Z, et al Artherioscler. Thromb. Vasc. Biol. 1999, 19: 2554-2562, Kurz K D, et al Thromb. Res. 1990, 60:269-280). Anti-thrombotic efficacy was evaluated at different times after dosage. Rats were anesthetized with sodium pentobarbital and then placed on a dorsal position over a thermal blanket laid on a surgical board and heated at 37° C. The left carotid artery was dissected and an electromagnetic blood flow probe was placed on the artery to measure blood flow. After application of the thrombotic stimuli, blood flow was monitored for the following 30 minutes. The vessel was considered occluded by the thrombus when flow reached 0.0 ml/min. Data were analysed by contingency tables using the Graph Pad Prism Program. P values were calculated using Fisher's exact test, values of p<0.05 were considered statistically significant. Results were expressed as % animals protected.

For assay [2], the system named is coronary angina caused by coronary obstruction (35% ferric chloride patch on left anterior descending coronary artery). The assay is described as follows: Anti-anginal activity, ferric chloride-induced coronary angina (ECG S-wave). The class given is in vivo, Male Wistar rats. As to conditions: Rattus norvegicus, po, read-out: Antianginal activity (% inhibition of S-wave decrease). The method, then: Anti-Anginal Activity Assessment
Male Wistar rats weighing 250-300 g were used after an acclimatization period of five days, and animals were divided in groups of 8 for each treatment. In all experiments, rats were treated with 90 μmol/kg of each product by oral gavage using an administration volume of 10 ml/kg unless otherwise stated. The vehicle used to dissolve the products consisted of 1% Cremophor EL 27963, 1% Tween 80 and 0.5% Methocel E-15 in distilled water. […]
The procedure used to test the anti-anginal activity was that described by Hirata Y et al (Hirata Y, et al. Journal of Cardiovascular Pharmacology 1998, 31: 322-326).
After treatment, animals were anaesthetized with pentobarbital and electrodes were set for standard limb lead II electrocardiogram recording (Grass polygraph model 7, amplifier 7DA and pre-amplifier 7P1).
To induce coronary angina caused by coronary obstruction, a 35%-ferric chloride embedded mini patch was applied onto the left anterior descending coronary artery just below the left auricle. In all groups, after application of the patch, the ECG was recorded during 10 minutes. The shortening of the S-wave amplitude was measured on the recorded ECG. Data were collected with a Biopac system model MP100 connected to a Pentium PC. Results were expressed as % inhibition of S-wave decrease vs the untreated control.

Where [3] appears, read: Rattus norvegicus, 1 h, 1 h after dosage.
[4] abbreviates: Rattus norvegicus, 2 h, 2 h after dosage.
Setting [5] is: Rattus norvegicus, 4 h, 4 h after dosage.
[6] abbreviates: 1 h, rat, 90 μmol/kg p.o., 1 h, vs untreated control.
The mark [7] stands for this setting: 2 h, rat, 90 μmol/kg p.o., 2 h, vs untreated control.
Setting [8] is: 4 h, rat, 90 μmol/kg p.o., 4 h, vs untreated control.
Setting [9] is: Rattus norvegicus, 0.5 h, ½ h after dosage.

Molecules are shown by their SMILES. Where two headings read alike, the source gives them in different places.

For `O=[N+]([O-])O[C@@H]1CO[C@H]2[C@@H]1OC[C@@H]2[S+]([O-])Cc1ccccc1` (stereo partly drawn) [Comp 4, (3R,3aS,6S,6aS)-6-((R,S)-benzylsulfinyl)hexahydrofuro[3,2-b]furan-3-yl nitrate, reference compound], the responders at 90 µmol/kg in assay [1] (setting [3]) was 20%; in assay [1] (setting [4]), 0%; in assay [1] (setting [5]) it was 0%.
For `CCCCS(=O)(=O)[C@H]1CO[C@H]2[C@@H]1OC[C@H]2O[N+](=O)[O-]` [Comp 12, (3R,3aS,6S,6aS)-6-(butylsulfonyl)hexahydrofuro[3,2-b]furan-3-yl nitrate, reference compound], in assay [1] (setting [3]), the responders at 90 µmol/kg came to 40%.
Take `CCS(=O)(=O)[C@@H]1CO[C@H]2[C@@H]1OC[C@H]2O[N+](=O)[O-]` [Ej. 15, (3R,3aS,6R,6aS)-6-(ethylsulfonyl)hexahydrofuro[3,2-b]furan-3-yl nitrate]: the inhibition in vivo at 90 µmol/kg in assay [2] (setting [6]) stood at 21%; in assay [2] (setting [7]) it was 0%; in assay [2] (setting [8]), 0%. In addition, the responders at 90 µmol/kg in assay [1] (setting [3]) is 9%; in assay [1] (setting [5]), 0%.
For the compound `CCCS(=O)(=O)[C@@H]1CO[C@H]2[C@@H]1OC[C@H]2O[N+](=O)[O-]` [Ej. 16, (3R,3aS,6R,6aS)-6-(propylsulfonyl)hexahydrofuro[3,2-b]furan-3-yl nitrate], the inhibition in vivo at 90 µmol/kg in assay [2] (setting [6]) was found to be 32%; in assay [2] (setting [8]), 30%. Besides, the responders at 90 µmol/kg in assay [1] (setting [3]) worked out at 40%; in assay [1] (setting [5]), 20%.
For `CCOC(=O)CS[C@H]1CO[C@H]2[C@@H]1OC[C@H]2O[N+](=O)[O-]` [Comp 3, Ethyl 2-((3S,3aS,6R,6aS)-6-(nitrooxy)hexahydrofuro[3,2-b]furan-3-ylthio)acetate, reference compound], the responders at 90 µmol/kg in assay [1] (setting [3]) is 32%.
Turning to `CCS[C@H]1CO[C@H]2[C@@H]1OC[C@H]2O[N+](=O)[O-]` [Ej. 1, (3R,3aS,6S,6aS)-6-(ethylthio)hexahydrofuro[3,2-b]furan-3-yl nitrate], the inhibition in vivo at 90 µmol/kg in assay [2] (1 h) is 29%; in assay [2] (4 h), 0%. Besides, the responders at 90 µmol/kg in assay [1] (rat, 1 h after dosage) worked out at 32%.
For the compound `CC[S+]([O-])[C@@H]1CO[C@H]2[C@@H]1OC[C@H]2O[N+](=O)[O-]` (single isomer, unassigned) [Ej. 13 isom 1], the responders at 90 µmol/kg in assay [1] (setting [5]) was determined as 16%. Also, in assay [1] (rat, 1 h after dosage), the “Antithrombotic activity (% protection)” value turned out to be 32%.
For the compound `O=[N+]([O-])O[C@@H]1CO[C@H]2[C@@H]1OC[C@@H]2S(=O)(=O)Cc1ccccc1` [Comp 8, (3R,3aS,6S,6aS)-6-(benzylsulfonyl)hexahydrofuro[3,2-b]furan-3-yl nitrate, reference compound], the responders at 90 µmol/kg in assay [1] (setting [3]) was 33%.
`CCCS(=O)(=O)[C@H]1CO[C@H]2[C@@H]1OC[C@H]2O[N+](=O)[O-]` [Ej. 8, (3R,3aS,6S,6aS)-6-(propylsulfonyl)hexahydrofuro[3,2-b]furan-3-yl nitrate]: the inhibition in vivo at 90 µmol/kg is 77% in assay [2] (setting [6]) and 25% in assay [2] (setting [8]). Further, the values for the responders at 90 µmol/kg in assay [1] (setting [3]), in assay [1] (setting [4]) and in assay [1] (setting [5]) were 100%, 50% and 0%, respectively.
Take `C=CC[S+]([O-])[C@H]1CO[C@H]2[C@@H]1OC[C@H]2O[N+](=O)[O-]` (stereo partly drawn) [Ej. 6, (3R,3aS,6S,6aS)-6-((R,S)-allylsulfinyl)hexahydrofuro[3,2-b]furan-3-yl nitrate]: the responders at 90 µmol/kg in assay [1] (setting [3]) was 67%; in assay [1] (setting [4]), 34%; in assay [1] (setting [5]), 17%.
For `C[S@+]([O-])[C@H]1CO[C@H]2[C@@H]1OC[C@H]2O[N+](=O)[O-]` [Comp 7, (3R,3aS,6S,6aS)-6-((S)-methylsulfinyl)hexahydrofuro[3,2-b]furan-3-yl nitrate, reference compound], the inhibition in vivo at 450 µmol/kg in assay [2] (1 h, rat, 450 μmol/kg p.o., 1 h, vs untreated control) was found to be 73%. The responders at 90 µmol/kg in assay [1] (setting [9]), in assay [1] (setting [3]), in assay [1] (setting [4]) and in assay [1] (setting [5]) was 0% in each case.
In the case of `CC[S+]([O-])[C@H]1CO[C@H]2[C@@H]1OC[C@H]2O[N+](=O)[O-]` (stereo partly drawn) [Ej. 4, (3R,3aS,6S,6aS)-6-((R,S)-ethylsulfinyl)hexahydrofuro[3,2-b]-furan-3-yl nitrate], the inhibition in vivo at 90 µmol/kg worked out at 84% in assay [2] (setting [6]) and 43% in assay [2] (setting [8]). The responders at 90 µmol/kg stood at 32% in assay [1] (setting [9]), 67% in assay [1] (setting [3]), 83% in assay [1] (setting [4]) and 50% in assay [1] (setting [5]).
Take `C=CCS[C@H]1CO[C@H]2[C@@H]1OC[C@H]2O[N+](=O)[O-]` [Ej. 3, (3R,3aS,6S,6aS)-6-(allylthio)hexahydrofuro[3,2-b]furan-3-yl nitrate]: the responders at 90 µmol/kg in assay [1] (setting [3]) came to 67%.
For `C=CCS(=O)(=O)[C@H]1CO[C@H]2[C@@H]1OC[C@H]2O[N+](=O)[O-]` [Ej. 9, (3R,3aS,6S,6aS)-6-(allylsulfonyl)hexahydrofuro[3,2-b]furan-3-yl nitrate], the responders at 90 µmol/kg in assay [1] (setting [3]) is 83%; in assay [1] (setting [4]), 50%; in assay [1] (setting [5]), 0%.
`CCCS[C@@H]1CO[C@H]2[C@@H]1OC[C@H]2O[N+](=O)[O-]` [Ej. 12, (3R,3aS,6R,6aS)-6-(propylthio)hexahydrofuro[3,2-b]furan-3-yl nitrate]: the inhibition in vivo at 90 µmol/kg turned out to be 14% in assay [2] (setting [6]), 0% in assay [2] (setting [7]) and 0% in assay [2] (setting [8]). Besides, the responders at 90 µmol/kg in assay [1] (setting [3]) worked out at 32%; in assay [1] (setting [5]) it was 16%.
As for `O=[N+]([O-])O[C@@H]1CO[C@H]2[C@@H]1OC[C@@H]2SCc1ccccc1` [Comp 2, (3R,3aS,6S,6aS)-6-(benzylthio)hexahydrofuro[3,2-b]furan-3-yl nitrate, reference compound], the responders at 90 µmol/kg in assay [1] (setting [3]) worked out at 33%.
Regarding `CCCC[S+]([O-])[C@H]1CO[C@H]2[C@@H]1OC[C@H]2O[N+](=O)[O-]` (stereo partly drawn) [Comp 11, (3R,3aS,6S,6aS)-6-((R,S)-butylsulfinyl)hexahydrofuro[3,2-b]furan-3-yl nitrate, reference compound], the responders at 90 µmol/kg in assay [1] (setting [3]) amounted to 32%.
As for `CC[S+]([O-])[C@@H]1CO[C@H]2[C@@H]1OC[C@H]2O[N+](=O)[O-]` (single isomer, unassigned) [Ej. 13 isom 2], the “Antithrombotic activity (% protection)” value in assay [1] (rat, 1 h after dosage) turned out to be 83%; in assay [1] (rat, 4 h after dosage) it was 16%.
Take `CCCCS[C@H]1CO[C@H]2[C@@H]1OC[C@H]2O[N+](=O)[O-]` [Comp 10, (3R,3aS,6S,6aS)-6-(butylthio)hexahydrofuro[3,2-b]furan-3-yl nitrate, reference compound]: in assay [1] (setting [3]), the responders at 90 µmol/kg was determined as 40%.
With `CCOC(=O)C[S+]([O-])[C@H]1CO[C@H]2[C@@H]1OC[C@H]2O[N+](=O)[O-]` (some centres unmarked) [Comp 5, reference compound], the responders at 90 µmol/kg in assay [1] (setting [3]) was determined as 16%; in assay [1] (setting [4]) it was 0%; in assay [1] (setting [5]) it was 0%.
